Data from US7045528B2, “Benzofused heterozryl amide derivatives of thienopyridines useful as therapeutic agents, pharmaceutical compositions including the same, and methods for their use” (Agouron Pharmaceuticals, Inc., priority 2002, dated 2006).
Like-named read-outs stand apart in the source and are kept apart here.

Experiments:
[1] = biological target: T1, unphosphorylated VEGF-R2Δ50 (FLVK) (Homo sapiens, UniProt P35968, DEL940-989/E990V); assay: VEGF-R2 coupled spectrophotometric assay, unphosphorylated VEGF-R2Δ50 (FLVK); format: biochemical; conditions: for inhibition at 0.05 µM: 50 nM compound, read-out: FLVK (% inh @ 50 nM); for inhibition at 0.05 µM / Ki: unphosphorylated VEGF-R2Δ50; for inhibition at 0.1 µM: read-out: FLVK (% @ 100 nM)
T1 construct: VEGF-R2Δ50 contains residues 806–939 and 990–1171; made in house; host or cells: baculovirus/insect cell system
Summary of the method: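 Ki obtained by Morrison-equation fitting of activity at varied compound levels; reaction started with 5–40 nM enzyme. Non-autophosphorylated kinase construct (insect cell-expressed) with 3 mM ATP, 20 mM poly(E4Y1), 60 mM MgCl2 plus 2 mM MnCl2, pH 7.5 HEPES; NADH loss at 340 nm via PK/LDH coupling.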

[2] = system: human umbilical vein endothelial cells (HUVEC); assay: HUVEC+VEGF proliferation assay; format: cell-based; conditions: Homo sapiens, HUVEC; VEGF 6 ng/mL, 72 h, MTT
Summary of the method: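 Exponentially growing passage 3–4 HUVEC were starved 24 h in F12K + 1% FBS, given compound (0.1% final DMSO) 1 h before 6 ng/mL final VEGF, then cultured 72 h. Proliferation was read as MTT dye reduction (4 h exposure), absorbance at 595 nm.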

[3] = biological target: T2, KDR (VEGFR2) (Homo sapiens, UniProt P35968); assay: KDR (VEGFR2) phosphorylation in PAE-KDR cells assay; format: cell-based; conditions: PAE cells overexpressing human KDR, VEGF stimulated; read-out: PAE KDR autophos IC50 (nM) AVG
T2 construct: expressed in transfected cells; host or cells: porcine aorta endothelial (PAE)-KDR cells
Description: KDR (VEGFR2) Phosphorylation in PAE-KDR Cells Assay
This assay determines the ability of a test compound to inhibit the autophosphorylation of KDR in porcine aorta endothelial (PAE)-KDR cells. PAE cells that overexpress human KDR were used in this assay. The cells were cultured in Ham's F12 media supplemented with 10% fetal bovine serum (FBS) and 400 ug/mL G418. Thirty thousands cells were seeded into each well of a 96-well plate in 75 μL of growth media and allowed to attach for 6 hours at 37° C. Cells were then exposed to the starvation media (Ham's F12 media supplemented with 0.1% FBS) for 16 hours. After the starvation period was over, 10 μL of test agent in 5% DMSO in starvation media were added to the test wells and 10 μL of the vehicle (5% DMSO in starvation media) were added into the control wells. The final DMSO concentration in each well was 0.5%. Plates were incubated at 37° C. for 1 hour and the cells were then stimulated with 500 ng/ml VEGF (commercially available from R & D System) in the presence of 2 mM Na3VO4 for 8 minutes. The cells were washed once with 1 mm Na3VO4 in HBSS and lysed by adding 50 μL per well of lysis buffer. One hundred μL of dilution buffer were then added to each well and the diluted cell lysate was transferred to a 96-well goat ant-rabbit coated plate (commercially available from Pierce) which was pre-coated with Rabbit anti Human Anti-flk-1 C-20 antibody (commercially available from Santa Cruz). The plates were incubated at room temperature for 2 hours and washed seven times with 1% Tween 20 in PBS. HRP-PY20 (commercially available from Santa Cruz) was diluted and added to the plate for a 30-minute incubation. Plates were then washed again and TMB peroxidase substrate (commercially available from Kirkegaard & Perry) was added for a 10-minute incubation. One hundred μL of 0.09 N H2SO4 was added to each well of the 96-well plates to stop the reaction. Phosphorylation status was assessed by spectrophotometer reading at 450 nm. IC50 values were calculated by curve fitting using a four-parameter analysis.

[4] = system: Huvec; assay: bFGF Huvec proliferation; format: cell-based, human; conditions: Homo sapiens, HUVEC
[5] = biological target: T3, PDGFRβ (Homo sapiens, UniProt P09619); assay: PAE-PDGFRβ phosphorylation in PAE-PDGFRB cells assay; format: cell-based
T3 construct: expressed in transfected cells; host or cells: porcine aorta endothelial (PAE)-PDGFRβ cells
Summary of the method: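 Inhibition of PDGF-BB-induced (1 μg/mL, 8 min, with 2 mM vanadate) PDGFRβ autophosphorylation in porcine aortic endothelial cells expressing the human receptor. Cells were starved 16 h and pretreated with compound 1 h at 37 °C. Lysates were captured with anti-PDGFRβ and probed with HRP-PY20 at 450 nm; four-parameter IC50.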

[6] = biological target: T4, FGF-R1 (Homo sapiens, UniProt P11362, C488A/C584S/L457V); assay: FGF-R spectrophotometric assay; format: biochemical; conditions: percent inhibition at 100 nM; library amides from Example 101 (R101), crude mixtures in DMSO
T4 construct: starting from the endogenous methionine residue 456 to glutamate 766; made in house; host or cells: baculovirus vector expression system
Description: FGF-R1 Construct for Assay:
The intracellular kinase domain of human FGF-R1 was expressed using the baculovirus vector expression system starting from the endogenous methionine residue 456 to glutamate 766, according to the residue numbering system of Mohammadi et al., Mol. Cell. Bio., 16, 977–989 (1996). In addition, the construct also has the following 3 amino acid substitutions: L457V, C488A, and C584S.
The spectrophotometric assay was carried out as described above for VEGF-R2, except for the following changes in concentration: FGF-R=50 nM, ATP=2 mM, and poly(E4Y1)=15 mM.

[7] = percent inhibition at 100 nM, library amides from Example 101 (R101), crude mixtures in DMSO
[8] = library amides from Example 101 (R101), crude mixtures in DMSO, read-out: PAE PDGFR autophos IC50
[9] = PAE cells overexpressing human PDGFRβ, PDGF-BB stimulated, read-out: PAE PDGFR autophos IC50 (nM) AVG

T3 sequence (P09619 33-1106): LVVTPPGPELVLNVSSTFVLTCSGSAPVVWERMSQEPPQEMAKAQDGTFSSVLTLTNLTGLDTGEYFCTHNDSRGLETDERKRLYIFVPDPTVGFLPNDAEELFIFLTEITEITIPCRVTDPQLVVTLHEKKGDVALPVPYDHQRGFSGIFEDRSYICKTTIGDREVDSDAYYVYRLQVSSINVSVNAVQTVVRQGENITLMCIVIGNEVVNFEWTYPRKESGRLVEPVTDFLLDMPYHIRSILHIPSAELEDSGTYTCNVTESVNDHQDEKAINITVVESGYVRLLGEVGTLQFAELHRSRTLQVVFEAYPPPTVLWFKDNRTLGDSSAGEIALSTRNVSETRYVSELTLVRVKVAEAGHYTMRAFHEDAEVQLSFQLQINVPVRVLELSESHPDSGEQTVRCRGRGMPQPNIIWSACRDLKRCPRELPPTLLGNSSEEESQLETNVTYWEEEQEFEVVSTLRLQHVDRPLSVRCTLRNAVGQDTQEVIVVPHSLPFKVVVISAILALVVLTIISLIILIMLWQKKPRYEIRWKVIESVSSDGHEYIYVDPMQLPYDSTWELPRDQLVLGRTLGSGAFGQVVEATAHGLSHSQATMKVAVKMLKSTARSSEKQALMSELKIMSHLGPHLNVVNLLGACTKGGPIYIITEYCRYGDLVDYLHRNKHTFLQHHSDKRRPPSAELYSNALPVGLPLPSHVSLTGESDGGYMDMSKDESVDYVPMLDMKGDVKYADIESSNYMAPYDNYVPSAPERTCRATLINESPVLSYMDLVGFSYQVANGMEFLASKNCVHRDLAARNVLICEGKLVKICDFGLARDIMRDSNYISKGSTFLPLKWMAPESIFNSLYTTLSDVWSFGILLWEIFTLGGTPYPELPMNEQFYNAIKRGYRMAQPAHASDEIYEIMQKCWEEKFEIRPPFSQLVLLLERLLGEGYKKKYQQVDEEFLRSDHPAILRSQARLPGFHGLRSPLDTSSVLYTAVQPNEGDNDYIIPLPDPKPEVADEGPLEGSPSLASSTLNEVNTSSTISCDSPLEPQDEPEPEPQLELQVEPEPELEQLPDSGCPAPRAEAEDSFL
T4 sequence (P11362 456-766 L457V/C488A/C584S): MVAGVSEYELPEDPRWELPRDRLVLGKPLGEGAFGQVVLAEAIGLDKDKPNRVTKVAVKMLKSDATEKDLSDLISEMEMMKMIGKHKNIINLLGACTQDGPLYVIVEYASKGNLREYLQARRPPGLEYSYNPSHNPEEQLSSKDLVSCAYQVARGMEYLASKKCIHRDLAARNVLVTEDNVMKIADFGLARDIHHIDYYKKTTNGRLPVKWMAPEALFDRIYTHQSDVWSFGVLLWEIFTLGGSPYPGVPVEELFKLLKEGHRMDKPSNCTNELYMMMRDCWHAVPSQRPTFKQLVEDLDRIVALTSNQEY
T1 sequence (P35968 with tags, fused parts or gaps DEL940-989/E990V limits assumed): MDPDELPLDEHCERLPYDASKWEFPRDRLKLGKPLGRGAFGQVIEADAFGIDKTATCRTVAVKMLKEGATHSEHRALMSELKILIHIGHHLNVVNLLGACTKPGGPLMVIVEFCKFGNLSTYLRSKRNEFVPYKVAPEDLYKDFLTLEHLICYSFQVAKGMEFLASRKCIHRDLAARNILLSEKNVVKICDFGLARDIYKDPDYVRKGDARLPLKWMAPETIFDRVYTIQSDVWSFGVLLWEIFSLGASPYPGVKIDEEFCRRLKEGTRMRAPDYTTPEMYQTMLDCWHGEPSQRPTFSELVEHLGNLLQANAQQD
T2 sequence (P35968 20-1356): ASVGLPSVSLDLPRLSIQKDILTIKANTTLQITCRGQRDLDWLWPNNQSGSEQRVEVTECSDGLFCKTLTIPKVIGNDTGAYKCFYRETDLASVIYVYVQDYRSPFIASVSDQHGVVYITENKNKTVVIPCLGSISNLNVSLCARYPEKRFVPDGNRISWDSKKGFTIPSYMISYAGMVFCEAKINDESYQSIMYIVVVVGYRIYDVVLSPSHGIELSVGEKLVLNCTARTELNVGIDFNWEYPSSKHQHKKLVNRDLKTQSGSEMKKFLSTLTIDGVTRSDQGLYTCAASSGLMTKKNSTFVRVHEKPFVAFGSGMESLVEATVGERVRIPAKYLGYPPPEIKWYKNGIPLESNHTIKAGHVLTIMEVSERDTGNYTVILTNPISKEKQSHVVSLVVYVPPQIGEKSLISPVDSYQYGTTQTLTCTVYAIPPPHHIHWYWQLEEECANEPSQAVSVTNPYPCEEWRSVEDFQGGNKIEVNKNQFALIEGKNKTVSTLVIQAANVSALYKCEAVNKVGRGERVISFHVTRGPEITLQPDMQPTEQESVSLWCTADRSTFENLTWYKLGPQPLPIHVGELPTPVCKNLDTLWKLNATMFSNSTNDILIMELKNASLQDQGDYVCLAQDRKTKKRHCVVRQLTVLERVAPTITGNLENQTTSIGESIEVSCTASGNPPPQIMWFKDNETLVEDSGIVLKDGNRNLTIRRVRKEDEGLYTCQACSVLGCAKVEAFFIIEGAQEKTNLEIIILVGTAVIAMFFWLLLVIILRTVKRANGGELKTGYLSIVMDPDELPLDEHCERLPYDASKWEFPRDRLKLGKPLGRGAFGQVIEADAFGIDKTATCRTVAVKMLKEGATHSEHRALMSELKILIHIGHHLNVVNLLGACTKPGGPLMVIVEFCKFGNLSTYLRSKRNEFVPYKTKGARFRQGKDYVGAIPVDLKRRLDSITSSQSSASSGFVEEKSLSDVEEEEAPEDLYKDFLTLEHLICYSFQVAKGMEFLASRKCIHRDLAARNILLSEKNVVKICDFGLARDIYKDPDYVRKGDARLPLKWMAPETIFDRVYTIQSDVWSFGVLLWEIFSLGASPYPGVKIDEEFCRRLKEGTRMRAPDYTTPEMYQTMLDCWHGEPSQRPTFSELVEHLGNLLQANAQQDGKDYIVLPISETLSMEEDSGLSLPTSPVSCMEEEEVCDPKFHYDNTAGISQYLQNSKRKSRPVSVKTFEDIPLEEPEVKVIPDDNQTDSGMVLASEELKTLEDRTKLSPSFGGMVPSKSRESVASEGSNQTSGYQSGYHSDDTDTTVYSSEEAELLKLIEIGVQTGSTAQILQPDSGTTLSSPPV

SMILES	inhibition at 0.1 µM [1, 7] [%]	IC50 [5, 8] [nM]	inhibition at 0.1 µM [6] [%]	also measured
CNC(=O)c1c(C)sc2cc(Oc3ccnc4cc(C(=O)N5C[C@@H](O)[C@@H](O)C5)sc34)ccc12 [Example 7, 6-(2-[meso-3,4-dihydroxypyrrolidine-1-carbonyl]thieno[3,2-b]pyridin-7-yloxy)-2-methylbenzo[b]thiophene-3-carboxylic acid methylamide]	–	–	–	inhibition at 0.05 µM [1]: 95%; Ki [1]: 1.04 nM; IC50 [2]: 1.21 nM; IC50 [3]: 1.95 nM; IC50 [4]: 2470 nM
Cc1csc(NC(=O)c2c(C)oc3cc(Oc4ccnc5ccsc45)ccc23)n1	62	> 100	7	–
Cc1c(C(=O)NCC2CC2)c2ccc(Oc3ccnc4cc(-c5nc(C(C)(C)O)cs5)sc34)cc2n1C [Example 57, 6-{2-[4(1-Hydroxy-1-methyl-ethyl)-thiazol-2-yl]-thieno[3,2-b]pyridin-7-yloxy)-1,2-dimethyl-1H-indole-3-carboxylic acid cyclopropylmethyl-amide]	–	–	–	inhibition at 0.05 µM [1]: 63%; Ki [1]: 9.8 nM; IC50 [3]: 87 nM
Cc1oc2cc(Oc3ccnc4ccsc34)ccc2c1C(=O)Nc1ccc(N2CCOCC2)nc1 [drawing 369]	101	57	0	–
Cc1oc2cc(Oc3ccnc4ccsc34)ccc2c1C(=O)Nc1nnc(C2CC2)s1	100	> 100	4	–
Cc1oc2cc(Oc3ccnc4ccsc34)ccc2c1C(=O)Nc1cc(-c2ccco2)n[nH]1	101	> 100	1	–
Cc1oc2cc(Oc3ccnc4ccsc34)ccc2c1C(=O)Nc1cccc(-c2cc[nH]n2)c1	94	> 100	0	–
CNC(=O)c1c(C)sc2cc(Oc3ccnc4cc(C(=O)N5CC(O)C5)sc34)ccc12 [Example 9, 6-(2-[3-Hydroxyazetidine-1-carbonyl]thieno[3,2-b]pyridin-7-yloxy)-2-methylbenzo[b]thiophene-3-carboxylic acid methylamide]	–	–	–	inhibition at 0.05 µM [1]: 83%; Ki [1]: 1.57 nM; IC50 [2]: 13 nM; IC50 [5, 9]: 313 nM; IC50 [4]: 135 nM; melting point: 237 to 239 °C
Cc1oc2cc(Oc3ccnc4ccsc34)ccc2c1C(=O)Nc1ccc2cn[nH]c2c1	87	57	0	–
Cc1oc2cc(Oc3ccnc4ccsc34)ccc2c1C(=O)NCCCN1CCOCC1 [drawing 308]	103	53	2	–
Cc1cc(C)c(O)c(NC(=O)c2c(C)oc3cc(Oc4ccnc5ccsc45)ccc23)c1	–	~100	13	inhibition at 0.1 µM [1]: 87%
Cc1oc2cc(Oc3ccnc4ccsc34)ccc2c1C(=O)Nc1n[nH]c2cccc(F)c12	61	> 100	0	–
Cc1oc2cc(Oc3ccnc4ccsc34)ccc2c1C(=O)Nc1ccc2[nH]ncc2c1	96	~100	0	–
Cc1ccc(NC(=O)c2c(C)oc3cc(Oc4ccnc5ccsc45)ccc23)c(O)c1	85	~100	0	–
Cc1oc2cc(Oc3ccnc4ccsc34)ccc2c1C(=O)Nc1nncs1	75	> 100	35	–
Cc1oc2cc(Oc3ccnc4ccsc34)ccc2c1C(=O)Nc1cc(C2CC2)nn1C	56	> 100	3	–
CNC(=O)c1c(C)sc2cc(Oc3ccnc4cc(-c5ccnn5C)sc34)ccc12 [Example 10, 2-Methyl-6-(2-[2-methyl-2H-pyrazol-3-yl]thieno[3,2-b]pyridin-7-yloxy)benzo[b]thiophene-3-carboxylic acid methylamide]	–	–	–	inhibition at 0.05 µM [1]: 74%; Ki [1]: 2.31 nM; IC50 [2]: 10 nM; IC50 [5, 9]: 451 nM; IC50 [4]: 99 nM; melting point: 210 to 212 °C
Cc1oc2cc(Oc3ccnc4ccsc34)ccc2c1C(=O)Nc1cc(C(C)(C)C)[nH]n1	100	> 100	56	–
Cc1oc2cc(Oc3ccnc4ccsc34)ccc2c1C(=O)NCCOC(C)C [drawing 361]	94	61	0	–
Cc1oc2cc(Oc3ccnc4ccsc34)ccc2c1C(=O)NCC(c1ccc[nH]1)C(F)(F)F (centres unmarked)	85	> 100	3	–
Cc1oc2cc(Oc3ccnc4ccsc34)ccc2c1C(=O)Nc1nccs1	90	> 100	20	–
Cc1oc2cc(Oc3ccnc4ccsc34)ccc2c1C(=O)NCCc1cccc(C(F)(F)F)c1	97	> 100	0	–
Cc1cc(NC(=O)c2c(C)oc3cc(Oc4ccnc5ccsc45)ccc23)n[nH]1 [drawing 331]	100	46	4	–
Cc1oc2cc(Oc3ccnc4ccsc34)ccc2c1C(=O)Nc1cnc2ccccc2c1	85	> 100	7	–
